Legend:
[1] = target: T1, human ALDH9A1 (HsALDH9A1) (Homo sapiens, UniProt P49189); assay: microscale thermophoresis, RED-tris-NTA labelled His-tagged enzyme; assay type: binding
T1 construct: full-length 494-residue protein, His-tag kept (pCDFDuet, BamHI/XhoI), recombinant from E. coli; silent polymorphism at Ile110 codon
From the text: microscale thermophoresis, RED-tris-NTA labelled His-tagged enzyme on human ALDH9A1 (HsALDH9A1)

[2] = target: T1, human ALDH9A1 (HsALDH9A1); assay: NADH formation at […] nm, partial substrate inhibition fit; assay type: biochemical; details: substrate inhibition constant; 1 mM NAD+, 150 mM sodium pyrophosphate pH 7.5, 30 °C
[3] = target: T1, human ALDH9A1 (HsALDH9A1); assay: nanoDSF (Tycho NT.[…]); assay type: binding; details: 150 mM Tris/HCl pH 7.5, apoenzyme reference 69.5 °C
[4] = target: T1, human ALDH9A1 (HsALDH9A1); assay: microscale thermophoresis; assay type: binding

T1 sequence (P49189 whole entry): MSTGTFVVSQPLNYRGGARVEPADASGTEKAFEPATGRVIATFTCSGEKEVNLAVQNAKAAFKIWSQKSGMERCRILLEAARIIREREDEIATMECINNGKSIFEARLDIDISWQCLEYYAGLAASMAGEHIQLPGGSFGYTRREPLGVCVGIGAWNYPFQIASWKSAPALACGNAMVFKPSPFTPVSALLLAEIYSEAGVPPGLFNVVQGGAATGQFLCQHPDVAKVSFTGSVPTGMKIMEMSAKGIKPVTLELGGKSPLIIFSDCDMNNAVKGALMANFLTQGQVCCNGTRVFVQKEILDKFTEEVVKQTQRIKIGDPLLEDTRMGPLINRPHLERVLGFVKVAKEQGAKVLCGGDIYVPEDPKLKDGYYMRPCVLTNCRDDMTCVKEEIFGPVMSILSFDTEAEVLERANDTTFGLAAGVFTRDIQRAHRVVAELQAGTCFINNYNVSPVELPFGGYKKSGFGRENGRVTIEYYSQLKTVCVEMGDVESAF

| Kd [1] [µM] | Ki [2] [µM] | SMILES | further results |
| --- | --- | --- | --- |
| 6 ± 3 | 2200 ± 590 | C[N+](C)(C)CCCC=O [TMABAL, 4-(trimethylamino)butyraldehyde] | Tm ([3]; 5 mM ligand): 63 °C |
|  | 7230 ± 1650 | N=C(N)NCCCC=O [GBAL] |  |
| 16 ± 3 |  | NC(=O)c1ccc[n+]([C@@H]2O[C@H](COP(=O)([O-])OP(=O)(O)OC[C@H]3O[C@@H](n4cnc5c(N)ncnc54)[C@H](O)[C@@H]3O)[C@@H](O)[C@H]2O)c1 [NAD^+] | Tm ([3]; 5 mM ligand): 69.5 °C |
| 171 ± 35 |  | C[N+](C)(C)CC=O [BAL] |  |
|  |  | C[N+](C)(C)CCCC(=O)[O-] [TMABA] | Kd [4]: 2600 ± 200 µM; Tm ([3]; 10 mM ligand): 66 °C |
|  | 470 ± 45 | C[N+](C)(C)CCC=O [TMAPAL, 3-(trimethylamino)propionaldehyde] |  |

| SMILES | Kd [1] [µM] | Ki [2] [µM] | further results |
| --- | --- | --- | --- |
| CN(C)CCCC=O [DMABAL] |  | 10880 ± 1350 |  |

From PMC6487263, “Kinetic and structural analysis of human ALDH9A1” (Bioscience Reports, 2019)
